Measurements from patent US9481654B2, “Compositions and methods for inhibition of the JAK pathway” (Rigel Pharmaceuticals, Inc., priority 2006, dated 2016).

Tests used:
[1] = tested on: IFNγ induced ICAM-1 (CD54) up-regulation in A549 lung epithelial cells (JAK/Stat pathway); assay: A549 Epithelial Line Stimulated with IFNγ (ICAM-1 surface expression, flow cytometry); assay type: cell-based, human; conditions: Table III Example 5
From the text: The activity of the compounds of the invention may additionally be characterized by assaying the effect of the 2,4-pyrimidinediamine compounds described herein on A549 lung epithelial cells and U937 cells. A549 lung epithelial cells and U937 cells up-regulate ICAM-1 (CD54) surface expression in response to a variety of different stimuli. Therefore, using ICAM-1 expression as readout, test compound effects on different signaling pathways can be assessed in the same cell type. Stimulation with IL-1β through the IL-1β receptor activates the TRAF6/NFκB pathway resulting in up-regulation of ICAM-1. IFNγ induces ICAM-1 up-regulation through activation of the JAK1/JAK2 pathway. The up-regulation of ICAM-1 can be quantified by flow cytometry across a compound dose curve and EC50 values are calculated. Exemplary assays of this type are described in greater detail in Examples 5 and 6.
A549 lung epithelial cells up-regulate ICAM-1 (CD54) surface expression in response to a variety of different stimuli. Therefore, using ICAM-1 expression as readout, compound effects on different signaling pathways can be assessed in the same cell type. IFNγ up-regulates ICAM-1 through activation of the JAK/Stat pathway. In this example, the up-regulation of ICAM-1 by IFNγ was assessed.
The A549 lung epithelial carcinoma cell line originated from the American Type Culture Collection. Routine culturing was with F12K media (Mediatech Inc., Lenexa, Kans., Cat. No. 10-025-CV) with 10% fetal bovine serum, 100 I.U. penicillin and […] streptomycin (complete F12k media). Cells were incubated in a humidified atmosphere of 5% CO2 at 37° C. Prior to use in the assay, A549 cells were washed with PBS and trypsinized (Mediatech Inc., Cat. No. 25-052-CI) to lift the cells. The trypsin cell suspension was neutralized with complete F12K media and centrifuged to pellet the cells. The cell pellet was resuspended in complete F12K media at a concentration of 2.0×10^5/mL. Cells were seeded at 20,000 per well, 100 μL total volume, in a flat bottom tissue culture plate and allowed to adhere overnight.
On day two, A549 cells were pre-incubated with a 2,4-pyrimidinediamine test compound or DMSO (control) (Sigma-Aldrich, St. Louis, Mo., Catalog No. D2650) for 1 hour. The cells were then stimulated with IFNγ (75 ng/mL) (Peprotech Inc., Rocky Hill, N.J., Cat. No. 300-02) and allowed to incubate for 24 hours. The final test compound dose range was 30 μM to 14 nM in 200 μL F12K media containing 5% FBS, 0.3% DMSO.
On day three, the cell media was removed and the cells were washed with 200 μL PBS (phosphate buffered saline). Each well was trypsinized to dissociate the cells, then neutralized by addition of 200 μL complete F12K media. Cells were pelleted and stained with an APC conjugated mouse anti-human ICAM-1 (CD54) (BD Pharmingen, San Diego, Calif., Catalog #559771) antibody for 20 minutes at 4° C. Cells were washed with ice cold FACS buffer (PBS+2% FBS) and surface ICAM-1 expression was analyzed by flow cytometry. Detection was performed using a BD LSR I System Flow Cytometer, purchased from BD Biosciences of San Jose, Calif. Events were gated for live scatter and the geometric mean was calculated (Becton-Dickinson CellQuest software version 3.3, Franklin Lakes, N.J.). Geometric means were plotted against the compound concentration to generate a dose response curve.

[2] = tested on: primary human T-cells (IL-2 induced proliferation, JAK-1/JAK-3, Stat-5); assay: Primary Human T-Cell Proliferation Assay Stimulated with IL-2 (CellTiter-Glo); assay type: cell-based; conditions: Table III Example 4
In short: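 Pre-activated peripheral-blood T-cells (TCR/CD28 stimulated, IL-2-maintained) were IL-2-depleted, then plated in Yssel's medium with 80 U/mL IL-2 in the cell suspension and compound in duplicate. Proliferation ran 72 h at 37 °C; viable cells quantified by CellTiter-Glo ATP luminescence, with IL-2-omitted wells as unstimulated control.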

## C#CCNS(=O)(=O)c1cc(Nc2ncc(C)c(Nc3ccc(CNS(=O)(=O)C4CC4)cc3)n2)ccc1C [Compound I-188, N4-(4-cyclopropylsulfonylaminomethyl)phenyl-5-methyl-N2-(4-methyl-3-propargylaminosulfonyl)phenyl-2,4-pyrimidinediamine]
[1]
  IC50: 5080 nM
[2]
  IC50: 573 nM

## Cc1cnc(Nc2cccc(S(N)(=O)=O)c2)nc1Nc1cccc(CNS(=O)(=O)C2CC2)c1 [Compound I-51, N2-(3-aminosulfonyl)phenyl-N4-(3-cyclopropylsulfonylaminomethyl)phenyl-5-methyl-2,4-pyrimidinediamine]
[1]
  IC50: 2800 nM
[2]
  IC50: 29.7 nM

## CCC(=O)N(Cc1cccc(Nc2nc(Nc3cccc(S(N)(=O)=O)c3)ncc2C)c1)S(=O)(=O)C1CC1 [Compound I-116, N2-(3-aminosulfonyl)phenyl-N4-[3-(N-cyclopropylsulfonyl-N-propionyl)aminomethyl]phenyl-5-methyl-2,4-pyrimidinediamine]
[1]
  IC50: 1830 nM
[2]
  IC50: 29.9 nM

## Cc1ccc(Nc2ncc(C)c(Nc3ccc(CNS(=O)(=O)C(C)C)cc3)n2)cc1S(N)(=O)=O [Compound I-117, N2-(3-aminosulfonyl-4-methyl)phenyl-N4-(4-isopropylsulfonylaminomethyl)phenyl-5-methyl-2,4-pyrimidinediamine]
[1]
  IC50: 2170 nM
[2]
  IC50: 17.9 nM

## Cc1ccc(Nc2ncc(F)c(Nc3ccc(CNS(=O)(=O)C4CCCC4)cc3)n2)cc1S(N)(=O)=O [Compound I-70, N2-(3-aminosulfonyl-4-methyl)phenyl-N4-(4-cyclopentylsulfonylaminomethyl)phenyl-5-fluoro-2,4-pyrimidinediamine]
[1]
  IC50: 2580 nM
[2]
  IC50: 150 nM

## COCCNS(=O)(=O)c1cc(Nc2ncc(C)c(Nc3ccc(CNS(=O)(=O)C4CC4)cc3)n2)ccc1C [Compound I-190, N4-(4-cyclopropylsulfonylaminomethyl)phenyl-N2-[3-(2-methoxyethyl)aminosulfonyl-4-methyl]phenyl-5-methyl-2,4-pyrimidinediamine]
[1]
  IC50: 1360 nM
[2]
  IC50: 101 nM

## Cc1ccc(Nc2ncc(F)c(Nc3cccc(CNS(=O)(=O)C4CC4)c3)n2)cc1S(N)(=O)=O [Compound I-34, N2-(3-aminosulfonyl-4-methyl)phenyl-N4-(3-cyclopropylsulfonylaminomethyl)phenyl-5-fluoro-2,4-pyrimidinediamine]
[1]
  IC50: 5700 nM
[2]
  IC50: 484 nM

## CCS(=O)(=O)NCc1cccc(Nc2nc(Nc3cccc(S(N)(=O)=O)c3)ncc2F)c1 [Compound I-12, N2-(3-aminosulfonyl)phenyl-N4-(3-ethylsulfonylaminomethyl)phenyl-5-fluoro-2,4-pyrimidinediamine]
[1]
  IC50: 4570 nM
[2]
  IC50: 158 nM

## NS(=O)(=O)c1ccc(Nc2ncc(F)c(Nc3ccc(CNS(=O)(=O)C4CCCCC4)cc3)n2)cc1 [Compound I-71, N2-(4-aminosulfonyl)phenyl-N4-(4-cyclohexylsulfonylaminomethyl)phenyl-5-fluoro-2,4-pyrimidinediamine]
[1]
  IC50: 10500 nM
[2]
  IC50: 132 nM

## COCCNS(=O)(=O)c1cccc(Nc2ncc(C)c(Nc3ccc(CNS(=O)(=O)C4CC4)cc3)n2)c1 [Compound I-184, N4-(4-cyclopropylsulfonylaminomethyl)phenyl-N2-[3-(2-methoxyethyl)aminosulfonyl]phenyl-5-methyl-2,4-pyrimidinediamine]
[1]
  IC50: 1410 nM
[2]
  IC50: 51.7 nM

## Cc1ccc(Nc2ncc(C)c(Nc3ccc(CNS(=O)(=O)C4CC4)c(Cl)c3)n2)cc1S(N)(=O)=O [Compound I-125, N2-(3-aminosulfonyl-4-methyl)phenyl-N4-(3-chloro-4-cyclopropylsulfonylaminomethyl)phenyl-5-methyl-2,4-pyrimidinediamine]
[1]
  IC50: 4030 nM
[2]
  IC50: 138 nM

## Cc1ccc(Nc2ncc(C)c(Nc3ccc4c(c3)CCN(S(=O)(=O)C3CC3)C4)n2)cc1S(N)(=O)=O [II-3, N2-(3-aminosulfonyl-4-methyl)phenyl-N4-[(N-cyclopropylsulfonyl)-1,2,3,4-tetrahydroisoquinolin-6-yl]-5-methyl-2,4-pyrimidinediamine]
[1]
  IC50: 12400 nM
[2]
  IC50: 47.5 nM

## CNS(=O)(=O)c1cccc(Nc2ncc(C)c(Nc3ccc(CNS(=O)(=O)C4CC4)cc3)n2)c1 [Compound I-161, N4-(4-cyclopropylsulfonylaminomethyl)phenyl-5-methyl-N2-(3-methylaminosulfonyl)phenyl-2,4-pyrimidinediamine]
[1]
  IC50: 24400 nM
[2]
  IC50: 11.2 nM

## Cc1cnc(Nc2cccc(S(=O)(=O)NCc3ccccc3)c2)nc1Nc1ccc(CNS(=O)(=O)C2CC2)cc1 [Compound I-154, N2-(3-benzylaminosulfonyl)phenyl-N4-(4-cyclopropylsulfonylaminomethyl)phenyl-5-methyl-2,4-pyrimidinediamine]
[1]
  IC50: 6350 nM
[2]
  IC50: 61.9 nM

## Cc1cnc(Nc2cccc(S(N)(=O)=O)c2)nc1Nc1ccc(CNS(=O)(=O)C2CC2)c(Cl)c1 [Compound I-119, N2-(3-aminosulfonyl)phenyl-N4-(3-chloro-4-cyclopropylsulfonylaminomethyl)phenyl-5-methyl-2,4-pyrimidinediamine]
[1]
  IC50: 4420 nM
[2]
  IC50: 95.4 nM

## NS(=O)(=O)c1cccc(Nc2ncc(F)c(Nc3ccc(CNS(=O)(=O)CC(F)(F)F)cc3)n2)c1 [Compound I-49, N2-(3-aminosulfonyl)phenyl-5-fluoro-N4-(4-trifluoroethylsulfonylaminomethyl)phenyl-2,4-pyrimidinediamine]
[1]
  IC50: 78900 nM
[2]
  IC50: 38.3 nM

## CNS(=O)(=O)c1cc(Nc2ncc(C)c(Nc3ccc(CNS(=O)(=O)C4CC4)cc3)n2)ccc1C [Compound I-185, N4-(4-cyclopropylsulfonylaminomethyl)phenyl-5-methyl-N2-(4-methyl-3-methylaminosulfonyl)phenyl-2,4-pyrimidinediamine]
[1]
  IC50: 4100 nM
[2]
  IC50: 41.1 nM

## COCCCNS(=O)(=O)c1cccc(Nc2ncc(C)c(Nc3ccc(CNS(=O)(=O)C4CC4)cc3)n2)c1 [Compound I-182, N4-(4-cyclopropylsulfonylaminomethyl)phenyl-N2-[3-(3-methoxypropyl)aminosulfonyl]phenyl-5-methyl-2,4-pyrimidinediamine]
[1]
  IC50: 2250 nM
[2]
  IC50: 55.1 nM

## CCNS(=O)(=O)c1cccc(Nc2ncc(C)c(Nc3cccc(CNS(=O)(=O)C4CC4)c3)n2)c1 [Compound I-208, N4-(3-cyclopropylsulfonylaminomethyl)phenyl-N2-(3-ethylaminosulfonyl)phenyl-5-methyl-2,4-pyrimidinediamine]
[1]
  IC50: 1300 nM
[2]
  IC50: 45.8 nM

## Cc1cnc(Nc2cccc(S(=O)(=O)NC(C)C)c2)nc1Nc1ccc(CNS(=O)(=O)C2CC2)cc1 [Compound I-173, N4-(4-cyclopropylsulfonylaminomethyl)phenyl-N2-(3-isopropylaminosulfonyl)phenyl-5-methyl-2,4-pyrimidinediamine]
[1]
  IC50: 1880 nM
[2]
  IC50: 42.4 nM

## COCCCNS(=O)(=O)c1cc(Nc2ncc(C)c(Nc3ccc(CNS(=O)(=O)C4CC4)cc3)n2)ccc1C [Compound I-191, N4-(4-cyclopropylsulfonylaminomethyl)phenyl-N2-[3-(3-methoxypropyl)aminosulfonyl-4-methyl]phenyl-5-methyl-2,4-pyrimidinediamine]
[1]
  IC50: 3060 nM
[2]
  IC50: 79.9 nM

## Cc1cnc(Nc2ccc(S(N)(=O)=O)cc2)nc1Nc1ccc2c(c1)CCN(S(=O)(=O)C1CC1)C2 [II-1, N2-(4-aminosulfonyl)phenyl-N4-[(N-cyclopropylsulfonyl)-1,2,3,4-tetrahydroisoquinolin-6-yl]-5-methyl-2,4-pyrimidinediamine]
[1]
  IC50: 18300 nM
[2]
  IC50: 108 nM
